Measured values published in PubChem BioAssay (NCI).
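Grown in 96-well plates, cells were treated for 48 hours with each compound at five concentrations. Insufficient inhibition: endpoint recorded as highest concentration tested. GI50: concentration for 50% inhibition of growth. TGI marks complete inhibition of growth.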

Assays:
Assay in all cases: inhibition of tumour cell growth, NCI panel, 48 h
[1] = system: CCRF-CEM leukemia
[2] = system: SNB-19 CNS
[3] = system: T-47D breast
[4] = system: SK-OV-3 ovarian
[5] = system: UACC-62 melanoma
[6] = system: TK-10 renal
[7] = system: A498 renal
[8] = system: SW-620 colon
[9] = system: 786-0 renal
[10] = system: ACHN renal

Row | SMILES | GI50 [1] | TGI [1] | GI50 [2] | TGI [2] | GI50 [3] | TGI [3] | GI50 [4] | TGI [4] | GI50 [5] | TGI [5] | GI50 [6] | TGI [6] | GI50 [7] | TGI [7] | GI50 [8] | TGI [8] | GI50 [9] | TGI [9] | GI50 [10] | TGI [10]
1 | CN(C)CCNC(=O)c1ccc(Nc2nc3ccccc3c3occc23)cc1 | 3.04 µM | 8.74 µM | 18.8 µM | 39 µM | 16.4 µM | 39.8 µM | 19.3 µM | 37.2 µM | 1.35 µM | 2.71 µM | 1.06 µM | 2.54 µM | 12.3 µM | 28.1 µM | 5.96 µM | 25.8 µM | 2.57 µM | 6.8 µM | 2.54 µM | 7.56 µM
2 | COc1cc2oc(=O)cc(C)c2cc1[N+](=O)[O-] |  | > 100 µM |  | > 100 µM |  | 77.2 µM |  | > 100 µM |  | 34.6 µM |  | 83.6 µM |  | > 84 µM |  | > 64.1 µM |  | 49.5 µM |  | > 100 µM
3 | O=C(Nc1ccc(Cl)c([N+](=O)[O-])c1)Nc1nc2ccccc2s1 | 3.88 µM | 20.8 µM | 4.87 µM | 30.8 µM | 2.48 µM | 10.6 µM | 2.6 µM | 8.46 µM | 4.05 µM | 18 µM | 4.26 µM | 12.8 µM | 2.14 µM | 8.01 µM | 3.38 µM | 14.5 µM | 10.3 µM | 26.8 µM | 3.34 µM | 12.8 µM
4 | CN1CCN(Cc2ccc(-c3cc4ncnc(Nc5ccc(OCc6cccc(F)c6)c(Cl)c5)c4s3)o2)CC1 | 3.81 µM | 9.18 µM | 4.8 µM | 9.86 µM | 4.12 µM | 9.06 µM | 4.67 µM | 9.97 µM | 4.97 µM | 9.58 µM | 3.02 µM | 6.64 µM | 3.5 µM | 7.57 µM | 4.66 µM | 8.64 µM | 4.47 µM | 8.95 µM | 3.26 µM | 6.95 µM
5 | CC(C)C[C@H](NC(=O)[C@H](Cc1ccccc1)n1ccc(N2CCCCC2)cc1=O)B(O)O | 0.429 µM | > 100 µM | 0.956 µM | > 100 µM | 0.781 µM | 6.09 µM | 2.36 µM | 71.5 µM | 0.458 µM | 2.44 µM | 0.375 µM | 15.6 µM | 0.127 µM | 0.736 µM | 0.376 µM | > 100 µM | 0.825 µM | > 100 µM | 0.406 µM | > 100 µM
6 | O=C(/C=C/c1ccco1)c1ccc(Nc2nc(Nc3ccc(F)cc3)nc(Nc3ccc(Cl)cc3)n2)cc1 | > 37.8 µM | > 94.4 µM | 34.8 µM | > 70 µM | 20.3 µM | > 100 µM | 26.6 µM | > 56.2 µM | > 37.4 µM | > 59.5 µM | 10.3 µM | > 35.9 µM | 2.39 µM | > 65.1 µM | 24.5 µM | > 63.3 µM | > 34.3 µM | > 49.4 µM | > 45.2 µM | > 78.9 µM
